This is an account of results in US20240141294A1, “CGMP COMPLIANT PRODUCTION AND EXPANSION OF PLASMACYTOID DENDRITIC CELLS FROM HEMATOPOIETIC STEM AND PROGENITOR CELLS” (AARHUS UNIVERSITET, priority 2021, published 2024).

Experiment [1] concerns Cord-blood derived CD34+HSPCs. In words: SR1/IL-3 deprivation during final 3 days of HSPC-pDC differentiation: cell growth and viability. The experiment is classed as cell-based, human. How it is done: In addition, 1 μM of the small molecule inhibitor StemRegenin 1 (SR1, […] Technologies), 20 μg/mL streptomycin and 20 U/mL penicillin (Gibco, Life Technologies) and 50 μg/mL of ascorbic acid (Sigma Aldrich) was added. Cells were cultured at 37° C., 95% humidity, and 5% CO2 for 17 days, medium was replenished every 2-4 day. […] Viability and total cell numbers during expansion and differentiation of HSPCs was determined using a TC20 Automated Cell Counter (Bio-Rad).

Experiment [2] has as its system HSPC-pDCs. Nature of the experiment: SR1/IL-3 deprivation: flow cytometry of CD123 and CD303. Format: cell-based, human. How it is done: Priming of HSPC-pDCs was performed as previously described [Laustsen, A., et al 2018]. […] HSPC-pDCs were primed with 250 U/mL IFN-β (PBL Assay Science) and 250 U/mL IFN-γ (Peprotech) or left unprimed. Cells were primed for 24 hours before being phenotypically and functionally characterized.
Flow cytometry was used to immunophenotype pDCs. Briefly, cells were spun down and resuspended in 25 μL TruStain FcBlock (Biolegend) diluted in cold FACS buffer (PBS with 2% FCS and 1 mM EDTA) and incubated cold for 15 minutes. Cells were subsequently stained 25 μL with the following antibodies: APC anti-human Lineage Cocktail (CD3 (UCHT1), CD14 (HCD14), CD16 (3G8), CD19 (HIB19), CD20 (2H7) and CD56 (HCD56), 348801, BioLegend), FITC anti-human CD11c (3.9, 301604, BioLegend), BV421 CD14 (HCD14, 325628, BioLegend), PE CD34 (581, 343506, BioLegend), APC-eFluor780 anti-human CD123 (6H6, 47-1239-42, eBioscience), PE-Cy7 anti-human CD303 (201a, 354214, BioLegend). Cells were stained for 30 min before being washed two times in FACS buffer and finally resuspended in 200 μL FACS Buffer. Fluorescence intensities were measured using the Attune NxT Flow Cytometer equipped with 4 lasers (405 nm, 488 nm, 561 nm, and 638 nm). Data analysis was done using FlowJo (Version 10.8.1, Tree Star, Ashland, OR, USA.

For `CC(C)n1cnc2c(NCCc3ccc(O)cc3)nc(-c3csc4ccccc34)nc21` [SR1, StemRegenin 1], the “fold change in number of cells in culture after the 3 days” value in experiment [1] (named supplement removed day 14-17, standard condition 2.31 (±0.49)) is given as 2.38 (±0.23). In addition, the “difference in the number of cells in culture between day 14 and 17” value in experiment [1] (named supplement removed from media day 14-17, standard condition 22.5×10^6 (±2.15×10^6)) is recorded as 25.3×10^6 (±3.12×10^6) cells. Also, the CD303 surface expression result in experiment [2] (SR1 removed from media vs standard condition) is listed as “no apparent difference”. Further, the CD123 surface expression in experiment [2] (SR1 removed from media, standard culturing condition MEI 1938) is on record as 988 (±391) MEI.
